Results from patent US20240025919A1, “AZA-TETRACYCLIC OXAZEPINE COMPOUNDS AND USES THEREOF” (Genentech, Inc., priority 2022, published 2024).

Columns and labels:
KRAS WT = KRAS WT (Homo sapiens (Human), UniProt P01116); assay: KRAS WT Biochemical Assay, BODIPY-GDP Exchange TR-FRET (Example 502; 0.06 nM KRAS WT, 15 nM GDP, 300 nM SOS1, 120-minute incubation); settings: read-out: KRas HTRF IC50
How it was run: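 IC50 from a 4-parameter Hill fit of percent inhibition, itself the TR-FRET 520/490 nm ratio scaled between DMSO and a fully inhibiting control. Reaction: 300 nM SOS1 and 300 nM BODIPY-GDP added to preformed 0.06 nM KRAS WT/15 nM GDP/Tb-streptavidin complex; 120 min incubation; pH 7.5 HEPES, MgCl2, DTT.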

KRAS G12D = KRAS G12D (Homo sapiens (Human), UniProt P01116, G12D); assay: KRAS G12D LoEnz Biochemical Assay, BODIPY-GDP Exchange TR-FRET (SOS1-mediated nucleotide exchange); settings: read-out: KRas (G12D) GDP HTRF IC50
KRAS G12D, sequence (P01116-2 other isoform, or with tags, fused parts or gaps G12D): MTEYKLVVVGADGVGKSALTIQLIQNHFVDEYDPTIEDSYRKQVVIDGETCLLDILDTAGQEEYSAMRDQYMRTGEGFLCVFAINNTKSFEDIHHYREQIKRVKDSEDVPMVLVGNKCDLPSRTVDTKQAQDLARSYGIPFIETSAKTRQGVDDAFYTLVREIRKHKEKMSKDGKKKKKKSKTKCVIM

KRAS WT, sequence (P01116-2 other isoform, or with tags, fused parts or gaps): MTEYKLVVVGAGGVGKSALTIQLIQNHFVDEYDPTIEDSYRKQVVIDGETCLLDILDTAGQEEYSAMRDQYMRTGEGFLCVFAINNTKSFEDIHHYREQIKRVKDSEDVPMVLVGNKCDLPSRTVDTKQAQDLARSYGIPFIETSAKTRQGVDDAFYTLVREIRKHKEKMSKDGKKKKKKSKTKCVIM

Compound: Cc1c(F)c(N)cc(-c2nc3c4c(nc(OCCC5(N6CCOCC6)COC5)nc4c2F)N2C[C@H]4CC[C@H](N4)[C@H]2[C@H](C)O3)c1C(F)(F)F [Compound 149, 2-Fluoro-5-((5S,5aS,6S,9R)-1-fluoro-5-methyl-12-(2-(3-morpholinooxetan-3-yl)ethoxy)-5a,6,7,8,9,10-hexahydro-5H-4-oxa-3,10a,11,13,14-pentaaza-6,9-methanonaphtho[1,8-ab]heptalen-2-yl)-3-methyl-4-(trifluoromethyl)aniline]
- IC50 (KRAS WT): 5450 nM
- IC50 (KRAS G12D): 18.4 nM

Compound: Cc1c(F)c(N)cc(-c2nc3c4c(nc(OCC[C@@H]5CC[C@H]6COCCN56)nc4c2F)N2C[C@H]4CC[C@H](N4)[C@H]2[C@H](C)O3)c1C(F)(F)F [Compound 154, 2-Fluoro-5-((5S,5aS,6S,9R)-1-fluoro-12-(2-((6S,8aS)-hexahydro-1H-pyrrolo[2,1-c][1,4]oxazin-6-yl)ethoxy)-5-methyl-5a,6,7,8,9,10-hexahydro-5H-4-oxa-3,10a,11,13,14-pentaaza-6,9-methanonaphtho[1,8-ab]heptalen-2-yl)-3-methyl-4-(trifluoromethyl)aniline]
- IC50 (KRAS WT): 118 nM
- IC50 (KRAS G12D): 0.47 nM

Compound: C[C@@H]1Oc2nc(-c3cc(N)c(F)c(F)c3C(F)(F)F)c(F)c3nc(OCC45CCN4CC(F)(F)C5)nc(c23)N2C[C@H]3CC[C@H](N3)[C@@H]12 (stereo partly drawn) [Compound 155, 5-((5S,5aS,6S,9R)-12-((3,3-difluoro-1-azabicyclo[3.2.0]heptan-5-yl)methoxy)-1-fluoro-5-methyl-5a,6,7,8,9,10-hexahydro-5H-4-oxa-3,10a,11,13,14-pentaaza-6,9-methanonaphtho[1,8-ab]heptalen-2-yl)-2,3-difluoro-4-(trifluoromethyl)aniline]
- IC50 (KRAS WT): 31.5 nM
- IC50 (KRAS G12D): 0.22 nM

Compound: C[C@@H]1Oc2nc(-c3cc(N)cc(F)c3C(F)(F)F)c(F)c3nc(OCC4CCC5N4CCOC5(C)C)nc(c23)N2C[C@H]3CC[C@H](N3)[C@@H]12 (stereo partly drawn) [Compound 157, 3-((5S,5aS,6S,9R)-12-((1,1-Dimethylhexahydro-1H-pyrrolo[2,1-c][1,4]oxazin-6-yl)methoxy)-1-fluoro-5-methyl-5a,6,7,8,9,10-hexahydro-5H-4-oxa-3,10a,11,13,14-pentaaza-6,9-methanonaphtho[1,8-ab]heptalen-2-yl)-5-fluoro-4-(trifluoromethyl)aniline]
- IC50 (KRAS WT): 45.6 nM
- IC50 (KRAS G12D): 0.55 nM

Compound: Cc1c(F)c(N)cc(-c2nc3c4c(nc(OC[C@H]5[C@H](C#N)CCN5C)nc4c2F)N2C[C@H]4CC[C@H](N4)[C@H]2[C@H](C)O3)c1C(F)(F)F [Compound 161, (2R,3R)-2-((((5S,5aS,6S,9R)-2-(5-Amino-4° fluoro-3-methyl-2-(trifluoromethylo)henyl)-1-fluoro-5-methyl-5a,6,7,8,9,10-hexahydro-5H-4-oxa-3,10a,11,13,14-pentaaza-6,9-methanonaphtho[1,8-ab]heptalen-12-yl)oxy)methyl)-1-methylpyrrolidine-3-carbonitrile]
- IC50 (KRAS WT): 1330 nM
- IC50 (KRAS G12D): 7.61 nM

Compound: Cc1c(F)c(N)cc(-c2nc3c4c(nc(OC[C@H]5[C@@H](O)CCN5C)nc4c2F)N2C[C@H]4CC[C@H](N4)[C@H]2[C@H](C)O3)c1C(F)(F)F [Compound 162, (2S,3S)-2-((((5S,5aS,6S,9R)-2-(5-Amino-4-fluoro-3-methyl-2-(trifluoromethyl)phenyl)-1-fluoro-5-methyl-5a,6,7,8,9,10-hexahydro-5H-4-oxa-3,10a,11,13,14-pentaaza-6,9-methanonaphtho[1,8-ab]heptalen-12-yl)oxy)methyl)-1-methylpyrrolidin-3-ol]
- IC50 (KRAS WT): 41.3 nM
- IC50 (KRAS G12D): 0.13 nM

Compound: Cc1c(F)c(N)cc(-c2nc3c4c(nc(OCCCN5C[C@H]6C[C@@H]5CO6)nc4c2F)N2C[C@H]4CC[C@H](N4)[C@H]2[C@H](C)O3)c1C(F)(F)F [Compound 163, 5-((5S,5aS,6S,9R)-12-(3-((1R,4R)-2-Oxa-5-azabicyclo[2.2.1]heptan-5-yl)propoxy)-1-fluoro-5-methyl-5a,6,7,8,9,10-hexahydro-5H-4-oxa-3,10a,11,13,14-pentaaza-6,9-methanonaphtho[1,8-ab]heptalen-2-yl)-2-fluoro-3-methyl-4-(trifluoromethyl)aniline]
- IC50 (KRAS WT): 19.6 nM
- IC50 (KRAS G12D): 0.11 nM
